This is an account of results in patent publication US11903912B2, “Composition for preventing and treating breast cancer including selenopsammaplin A as active ingredients” (Seoul National University R & DB Foundation, priority 2019, dated 2024).

The subject of series [1] is MDA-MB-231 cells. Put plainly: Cancer cell migration (scratch) test. The note with it: MDA-MB-231, scratch, 50-400 nM, 24 hours. The series is classed as cell-based, human. On the procedure:
The triple-negative breast cancer cell line MDA-MB-231 was spread at a concentration of 2×10^6 cells/well on a DMEM medium containing 10% FBS in a 6-well plate, cultured at 37° C. for 24 hours under a 5% CO2 condition, and then washed once with phosphate-buffered saline (PBS). After scratching using a 200 μl tip, the cells were treated with 50-400 nM compound 2 and 400 nM psammaplin A, and then cultured for 24 hours. After washing once with PBS, the degree of migration of cells was photographed using a microscope, and the results thereof are illustrated in FIG. 5A. The degree of scratch healing compared to a control using ImageJ software is illustrated in FIG. 5B.

Series [2] has as its system EMT markers in MDA-MB-231 cells. The experiment in a line: Protein expression of EMT markers, western blot. The conditions noted are these: MDA-MB-231, western blot, FIGS. 7E and 7F. The series is classed as cell-based, human. On the procedure:
The triple-negative breast cancer cell line MDA-MB-231 was spread at a concentration of 2×10^6 cells/well on a DMEM medium containing 10% FBS in a 6-well plate, cultured at 37° C. for 24 hours under a 5% CO2 condition, and then washed twice with phosphate-buffered saline (PBS). Attached cells were recovered and washed twice with PBS, and then boiling 2× sample loading buffer (250 mM Tris-HCl (pH 6.8), 4% SDS, 10% glycerol, 0.006% bromophenol blue, 2% β-mercaptoethanol, 50 mM sodium fluoride, and 5 mM sodium orthovanadate) was added thereto to disrupt the cells and the cells were left at 100° C. for 10 minutes. After cooling, the cells were stored at […] and […] at 37° C. immediately before use in protein quantification and electrophoresis. 10 μg of proteins were electrophoresed at 100 V for 2 hours using a 12% SDS-polyacrylamide gel (#456-1036, Bio-Rad, Hercules, Calif.). The separated proteins were transferred to a PVDF membrane (ISEQ15150, Millipore, Bedford, Mass.) at 100 V for 1 hour, and a blocking buffer (5% non-fat dry milk in TBS containing 0.1% Tween-20 (TBST)) was injected thereinto to culture the proteins at room temperature for 1 hour. After washing three times with TBST for 5 minutes, the corresponding single antibody was diluted with 5% non-fat dry milk in TBST and allowed to react with the membrane at 4° C. for 18 hours. The membrane [ISEQ 1S150, Millipore, Bedford, Mass.] was washed three times with TBST for 10 minutes, and then horseradish peroxidase (HRP)-conjugated secondary antibodies were diluted with 2.5% non-fat dry milk in TBST at a ratio of 1:2,000 and allowed to react with the membrane at room temperature for 2 hours. After washing three times with TBST for 10 minutes, the reaction product was treated with a chemiluminescent reagent (LabFrontier, Suwon, Korea) to confirm the protein expression levels of E-cadherin, N-cadherin, vimentin, and beta-actin (Fuji Film Corp., Japan) using LAS-4000 (Fuji Film Corp., Japan), and the results thereof are illustrated in FIG. 7E. The proteins were quantified using ImageJ software, which are illustrated in FIG. 7F.
On the technique in general: In western blotting, separated proteins are transferred to a membrane and probed.

The target of series [3] is T1, DOT1L (Homo sapiens, UniProt Q8TEK3).
T1 construct: based on the finding that DOT1L was overexpressed in the breast cancer cell line; endogenous in cells
T1 sequence (Q8TEK3 whole entry): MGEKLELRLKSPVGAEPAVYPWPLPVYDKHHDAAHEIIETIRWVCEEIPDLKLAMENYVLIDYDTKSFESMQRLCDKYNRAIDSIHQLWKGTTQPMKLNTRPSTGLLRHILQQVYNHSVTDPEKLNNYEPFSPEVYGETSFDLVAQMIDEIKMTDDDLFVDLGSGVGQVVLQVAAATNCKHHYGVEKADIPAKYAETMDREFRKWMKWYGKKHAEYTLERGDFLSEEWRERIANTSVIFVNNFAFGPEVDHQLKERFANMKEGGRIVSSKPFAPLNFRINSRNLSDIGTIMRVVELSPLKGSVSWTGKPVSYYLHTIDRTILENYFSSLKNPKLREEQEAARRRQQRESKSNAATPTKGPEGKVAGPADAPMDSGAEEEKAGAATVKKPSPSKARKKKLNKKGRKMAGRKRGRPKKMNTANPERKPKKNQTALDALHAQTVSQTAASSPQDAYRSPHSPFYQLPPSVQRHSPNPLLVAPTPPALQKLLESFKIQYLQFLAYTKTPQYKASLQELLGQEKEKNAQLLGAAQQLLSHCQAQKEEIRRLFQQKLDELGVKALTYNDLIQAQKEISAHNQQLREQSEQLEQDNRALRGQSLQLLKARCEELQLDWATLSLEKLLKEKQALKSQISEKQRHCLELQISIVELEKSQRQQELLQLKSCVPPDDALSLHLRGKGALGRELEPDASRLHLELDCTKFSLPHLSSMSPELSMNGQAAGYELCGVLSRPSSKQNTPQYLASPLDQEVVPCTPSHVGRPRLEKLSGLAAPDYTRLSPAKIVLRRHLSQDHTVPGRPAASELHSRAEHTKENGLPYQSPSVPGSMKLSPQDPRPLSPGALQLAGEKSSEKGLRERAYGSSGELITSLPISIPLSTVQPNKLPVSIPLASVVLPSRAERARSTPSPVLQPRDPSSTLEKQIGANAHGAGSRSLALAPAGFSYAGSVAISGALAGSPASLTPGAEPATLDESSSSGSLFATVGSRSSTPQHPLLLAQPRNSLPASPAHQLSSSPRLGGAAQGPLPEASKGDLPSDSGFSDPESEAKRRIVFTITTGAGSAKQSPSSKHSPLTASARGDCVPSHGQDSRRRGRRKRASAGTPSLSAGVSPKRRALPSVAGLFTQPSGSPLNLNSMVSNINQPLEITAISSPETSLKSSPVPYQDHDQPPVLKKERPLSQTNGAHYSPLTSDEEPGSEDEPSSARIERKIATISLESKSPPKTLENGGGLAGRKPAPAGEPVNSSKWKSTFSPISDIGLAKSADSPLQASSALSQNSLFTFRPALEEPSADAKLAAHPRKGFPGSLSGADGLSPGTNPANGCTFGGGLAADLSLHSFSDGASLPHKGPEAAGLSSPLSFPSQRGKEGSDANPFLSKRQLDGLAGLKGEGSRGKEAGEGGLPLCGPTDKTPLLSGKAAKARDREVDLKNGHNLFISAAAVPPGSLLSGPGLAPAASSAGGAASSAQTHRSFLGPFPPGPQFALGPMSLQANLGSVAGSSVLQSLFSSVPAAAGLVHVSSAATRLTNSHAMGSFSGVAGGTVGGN
Put plainly: Inhibition of DOT1L methylation (H3K79) by western blotting. The series is classed as cell-based. The note with it: breast cancer cell line, FIG. 3. The source says: As confirmed in Example 1, based on the finding that DOT1L was overexpressed in the breast cancer cell line, the effects of the derivatives of the present invention on the methylation of the histone 3 lysine 79 (H3K79) residue, which is an in-vivo target of DOT1L, were examined by western blotting.

Series [4] relates to HCT116 human colon cancer cells. Put plainly: SRB cytotoxicity test, HCT116. The conditions noted are these: SRB assay, cultured 3 days. The series is classed as cell-based. On the procedure:
(§1) A cytotoxicity test was performed using synthesized selenopsammaplin A and derivatives thereof (Lee S K et al […] Chem Biol Interact 115:215-28).
(§2) The cytotoxicity test was performed on a total of five representative cancer cell lines. The cytotoxicity of each compound was measured using an SRB assay method (human lung cancer cells, A549; human colon cancer cells, HCT116; human breast cancer cells, MDA-MB231; human liver cancer cells, SK-HEP-1; human gastric cancer cells, SNU638).
(§3) Each cell line was sub-cultured once or twice using Roswell Park Memorial Institute (RPMI) medium 1640 (RPMI 1640) or Dulbecco's Modified Eagle's Medium (DMEM) containing 10% fetal bovine serum (FBS) inactivated by heat, 100 units/mL of penicillin, 100 μg/mL of streptomycin, and 250 ng/mL of amphotericin B at 37° C. for 1 week under a 5% CO2 condition. All cells were […] in liquid nitrogen, and then passaged three or more times to be used in the experiment. The effects of compounds on cell growth were measured using a sulforhodamine B (SRB) method (Lee et al (1998) Chemico-Biol Interact 115:215-228).
(§4) Specifically, each human cancer cell line used in the present invention was sub-cultured in an RPMI medium containing 10% FBS, 1% PSF, and the like, and 10 μl of a sample dissolved in 10% DMSO and 190 μl (4-5×10^4 cells/ml) of the cell suspension were added to each well of a 96-well plate and cultured for 3 days. 190 μl of the cell suspension was added to at least 16 wells and cultured for 30 minutes, and used as a zero-day control. The cultured cells were fixed with 10% trichloroacetic acid (TCA) and then stained with an SRB solution, and the staining solution was dissolved with 10 mM Tris-base, and then absorbance at 515 nm was measured. Using the case of culturing in 10% DMSO as a control, cell viability according to each test material treatment was measured using Equation 1 below. Etoposide was used as a positive control. % Viability=(OD(sample)−OD(0-day))/(OD(10% DMSO)−OD(0-day))×100 [Equation 1]
(§5) Assuming that a control not-treated with the sample was set at 100%, the values of sample-treated groups were expressed as percentage with respect to the control, and each test material treatment results were obtained as the mean±SEM of two or three tests. The IC50 value is the concentration of the test material for a 50% survival rate.

The test system of series [5] is breast tumors. The experiment in a line: Breast tumor growth in xenograft mouse model. The series is classed as in vivo, nude BALB/c mice. On the procedure: Breast cancer cells were injected into fat pads of nude BALB/c mice (8-week-old, female). When the tumor size reached about 200 mm^3, the compound was injected intraperitoneally three times a week. The tumor volume was calculated by the following equation: [volume […]=(L×W2)/2] and illustrated in FIG. 8A. 38 days after administration began, the mice were sacrificed and tumors were extracted, and the weights thereof were measured and illustrated in FIG. 8B. The body weights of the mice measured during the experiment are illustrated in FIG. 8C.

Series [6] relates to SNU638 human gastric cancer cells. Put plainly: SRB cytotoxicity test, SNU638. The series is classed as cell-based. The note with it: SRB assay, cultured 3 days. On the procedure:
as §1, §2, §3, §4, §5
Background: Sulforhodamine B stains cellular protein and so reports cell mass.

Turning to `O=C(NCC[Se][Se]CCNC(=O)/C(Cc1ccccc1)=N/O)/C(Cc1ccccc1)=N/O` [Compound 2, (2E,2′E)-N,N′-(diselenediylbis(ethane-2,1-diyl))bis(2-(hydroxyimino)-3-phenylpropanamide)], the “migration of breast cancer cells” value in series [1] is reported as “effectively suppressed”. Further, in series [2], the “protein expression of E-cadherin” value is “increased”, the “protein expression of N-cadherin” value was “suppressed”, the “protein expression of ZEB1” value is “suppressed” and the “protein expression of vimentin” value is listed as “suppressed”. In series [3], the “inhibitory effect on H3K79 methylation” value is “excellent”. In addition, the IC50 (in general, the midpoint of a concentration-inhibition curve) in series [4] came to 0.09 µM. For the same compound, in series [5] (38 days after administration began, compared to control, psammaplin A and paclitaxel groups), the tumor weight result was “remarkably reduced”. Moreover, in series [5] (intraperitoneally three times a week, compared to the control), the tumor volume entry was “remarkably reduced”. Also, in series [5] (measured during the xenograft experiment), the “body weights of the mice” value is given as “not affected”. Moreover, the concentration for half-maximal inhibition (IC50) in series [6] turned out to be 0.05 µM.
